Laboratory results taken from patent US9695481B2, “Polynucleotides comprising a reporter sequence operatively linked to a regulatory element” (UNIVERSITEIT LEIDEN, priority 2010, dated 2017).
Counter-ions that a name gives are not always drawn. Like-named read-outs stand apart in the source and are kept apart here.

Assays:
[1] = system: Bscl2-GFP and Srxn1-GFP mES reporter cells
Salmonella = settings: cited from earlier work
[2] = cited from earlier work
[3] = Genotoxicity profile; data extracted from Kirkland et al. 2008; cited from earlier work
[4] = system: mouse ES cell lines containing a DsRed fluorescent reporter; settings: cited from earlier work
[5] = system: Srxn1-GFP mES reporter cells; assay: Srxn1-GFP oxidative stress reporter
[6] = Genotoxicity profile, data extracted from Kirkland et al. 2008
[7] = from which GFP reporter is induced

Compound | Ames test (Salmonella; [6]) | In vivo genotoxicity [2, 6] | In vitro genotoxicity [3] | Bscl2-GFP/Srxn1-GFP GFP Induction [1] | mES DsRed reporters ([4]; Hendriks et al. 2011) | further results
Oc1cccc(O)c1 [1,3-Dihydroxybenzene (Resorcinol), 1,3-Dihydroxybenzene] | Neg. | Neg. | Pos. |  |  | Bscl2-GFP/Srxn1-GFP Prim. toxic properties [1]: Equivocal
Oc1ccc(Cl)cc1Cl [2,4-dichlorophenol] |  |  |  | Pos. (key: Pos.: considered positive when exposure to at least two different concentrations of a compound resulted in >1.5 fold induction of GFP expression) | Pos. | Bscl2-GFP/Srxn1-GFP Prim. toxic properties [1]: Pro-oxidant; Ames test (Salmonella): Neg.; In vivo genotoxicity ([2]; in vivo): Weak Pos.
CCCCCC(O)C=CC=O (centres unmarked) [4-Hydroxy-2-nonenal] | Neg. | Neg. | Pos. |  |  | Bscl2-GFP/Srxn1-GFP Prim. toxic properties [1]: Pro-oxidant
O=[N+]([O-])c1cc[n+]([O-])c2ccccc12 [4-Nitroquinelone-1-oxide] |  | Pos. | Pos. | Pos. (considered positive when exposure to at least two different concentrations of a compound resulted in >1.5 fold induction of GFP expression) |  | Bscl2-GFP/Srxn1-GFP Prim. toxic properties [1, 7]: Genotoxin
C[N+](C)(C)CCCl.[Cl-] [(2-chloroethyl)trimethyl-ammonium chloride] |  |  |  | Neg. |  | Ames test (Salmonella): Neg.; mES DsRed reporters [4]: Neg.
Nc1nc[nH]n1 [Amitrole] | Neg. | Neg. | Neg. | Neg. | Neg. | 
OCc1ccccc1 [Benzyl alcohol] | Neg. |  | Weak Pos. | Neg. | Neg. | 
CC[C@@]1(O)C(=O)OCc2c1cc1n(c2=O)Cc2cc3ccccc3nc2-1 [Camptothecin] | Neg. | Neg. | Pos. | Pos. (considered positive when exposure to at least two different concentrations of a compound resulted in >1.5 fold induction of GFP expression) |  | Bscl2-GFP/Srxn1-GFP Prim. toxic properties [1, 7]: Genotoxin
COc1cc(/C=C/C(=O)CC(=O)/C=C/c2ccc(O)c(OC)c2)ccc1O [Curcumln] | Neg. |  | Pos. | Neg. | Neg. | 
O=C1CCCCC1 [Cyclohexanone] | Neg. |  | Neg. | Neg. | Neg. | 
Nc1ccn([C@@H]2O[C@H](CO)[C@@H](O)[C@@H]2O)c(=O)n1 [Cytarabine] |  |  |  |  |  | Bscl2-GFP/Srxn1-GFP Prim. toxic properties [1]: Genotoxin; Ames test (Salmonella): Neg.
C=C(C)[C@H]1CC=C(C)CC1 [D-limonene] |  |  |  | Neg. | Neg. | 
OCCNCCO [Diethanolamine] | Neg. | Neg. | Neg. | Neg. | Neg. | 
CC[C@H]1OC(=O)[C@H](C)[C@@H](O[C@H]2C[C@@](C)(OC)[C@@H](O)[C@H](C)O2)[C@H](C)[C@@H](O[C@@H]2O[C@H](C)C[C@H](N(C)C)[C@H]2O)[C@](C)(O)C[C@@H](C)C(=O)[C@H](C)[C@@H](O)[C@]1(C)O [Erythromycin stearate] | Neg. |  |  | Neg. |  | 
CCc1cc(C(N)=S)ccn1 [Ethionamide] | Neg. |  | Weak Pos. | Neg. | Neg. | 
C=CC(=O)OCC [Ethyl acrylate] |  |  |  | Neg. | Neg. | Ames test (Salmonella): Neg.; In vivo genotoxicity ([2]; in vivo): Weak Pos.
C=CCc1ccc(O)c(OC)c1 [Eugenol] | Neg. |  |  | Neg. |  | In vivo genotoxicity ([2]; in vivo): Equivocal; mES DsRed reporters [4]: Neg.
CN1CC[C@H](c2c(O)cc(O)c3c(=O)cc(-c4ccccc4Cl)oc23)[C@H](O)C1 [Flavopiridol] |  |  |  | Neg. |  | 
CN(C)C(=O)Nc1cccc(C(F)(F)F)c1 [Fluometron] | Neg. |  | Neg. | Neg. | Neg. | 
ClC(Cl)(Cl)C(Cl)(Cl)Cl [Hexachloroethane] | Neg. | Neg. | Neg. | Neg. | Neg. | 

Compound | Ames test (Salmonella; [6]) | In vivo genotoxicity [2, 6] | In vitro genotoxicity [3] | Bscl2-GFP/Srxn1-GFP GFP Induction [1] | mES DsRed reporters ([4]; Hendriks et al. 2011) | further results
OO [Hydrogen peroxide] | Pos. | Neg. | Pos. |  | Neg. | Bscl2-GFP/Srxn1-GFP Prim. toxic properties [1]: Pro-oxidant
CC(C)C=O [Isobutyraldehyde] |  |  |  | Neg. |  | mES DsRed reporters [4]: Neg.
COC(N)=O [Methyl carbamate] |  | Neg. | Neg. |  |  | 
NC(=S)N(C1CCCCC1)C1CCCCC1 [N,N-dicyclohexyl thiourea] | Neg. |  | Neg. | Neg. | Neg. | 
CC(=O)N[C@@H](CS)C(=O)O [NAC, N-acetyl cysteine] |  |  |  |  |  | effect of scavenger alone on cell viability and reporter activity ([1]; data not shown): did not affect cell viability or reporter activity; effect on Srxn1-GFP reporter activation by pro-oxidants ([5]; co-incubation with DEM, CuSO4, NaAsO2, CdCl2 or MMS, 24 h): completely inhibited activation of the reporter; effect on Srxn1-GFP reporter activation by CisPt ([5]; data not shown): significantly reduced reporter activation
[H]/N=C(/N)N/C(=N/[H])NCCc1ccccc1 [Phenformin HCl] |  |  |  | Neg. | Neg. | 
CCCOC(=O)c1cc(O)c(O)c(O)c1 [Propyl gallate] | Neg. | Equivocal | Pos. |  | Pos. | Bscl2-GFP/Srxn1-GFP Prim. toxic properties [1]: Equivocal
c1ccncc1 [Pyrldlne] | Neg. | Neg. | Neg. | Neg. | Neg. | 
O=C1NS(=O)(=O)c2ccccc21.[Na] [Sodium saccharin] |  |  |  | Neg. |  | Ames test (Salmonella): Neg.; In vivo genotoxicity ([2]; in vivo): Neg.; mES DsRed reporters [4]: Neg.
Cc1noc(NS(=O)(=O)c2ccc(N)cc2)c1C [Sulfisoxazole] | Neg. |  |  | Pos. (key: Pos.: considered positive when exposure to at least two different concentrations of a compound resulted in >1.5 fold induction of GFP expression) | Neg. | Bscl2-GFP/Srxn1-GFP Prim. toxic properties [1]: Pro-oxidant
CC(=O)O[C@H]1C(=O)[C@@]2(C)[C@H]([C@H](OC(=O)c3ccccc3)[C@]3(O)C[C@H](OC(=O)[C@H](O)[C@@H](NC(=O)c4ccccc4)c4ccccc4)C(C)=C1C3(C)C)[C@]1(OC(C)=O)CO[C@@H]1C[C@@H]2O [Taxol] | Neg. | Pos. | Pos. |  |  | Bscl2-GFP/Srxn1-GFP Prim. toxic properties [1]: Genotoxin
CC(C)(C)OO [Tert-butyl hydroperoxide] |  |  |  | Pos. (key: Pos.: considered positive when exposure to at least two different concentrations of a compound resulted in >1.5 fold induction of GFP expression) |  | mES DsRed reporters [4]: Neg.
CC(C)(C)c1cc(O)ccc1O [Tert-butylhydroquinone] | Neg. | Neg. | Pos. |  | Pos. | Bscl2-GFP/Srxn1-GFP Prim. toxic properties [1]: Pro-oxidant
CCCCC(CC)COP(=O)(OCC(CC)CCCC)OCC(CC)CCCC (centres unmarked) [Tris(2-ethylhexyl)phosphate] | Neg. | Neg. | Neg. | Neg. | Neg. | 
NC(N)=O [Urea] | Neg. |  | Pos. | Neg. | Neg. | 
Nc1ccccc1C(=O)O [o-anthranilic acid] | Neg. | Neg. | Pos. | Neg. | Pos. | 
O=[N+]([O-])c1ccc(O)cc1 [p-Nitrophenol] |  |  |  | Pos. (key: Pos.: considered positive when exposure to at least two different concentrations of a compound resulted in >1.5 fold induction of GFP expression) |  | Bscl2-GFP/Srxn1-GFP Prim. toxic properties [1]: Pro-oxidant; mES DsRed reporters [4]: Neg.
Nc1ccc(Cl)cc1 [p-chloroaniline] |  |  |  | Neg. |  | Ames test (Salmonella): Pos.; In vivo genotoxicity ([2]; in vivo): Pos.; mES DsRed reporters [4]: Neg.
Bleomycin | Pos. | Pos. | Pos. | Pos. (considered positive when exposure to at least two different concentrations of a compound resulted in >1.5 fold induction of GFP expression) |  | Bscl2-GFP/Srxn1-GFP Prim. toxic properties [1, 7]: Genotoxin
n-butyl chloride |  |  |  |  |  | mES DsRed reporters [4]: Neg.
